Measurements as given in ChEMBL document CHEMBL4828726, “Modification of 5-methylphenanthridium from benzothiazoles to indoles as potent FtsZ inhibitors: Broadening the antibacterial spectrum toward vancomycin-resistant enterococci” (Eur J Med Chem, 2021).
Calls of active or inactive are those of the source. No cut-off for these calls is given here.

Legend:
Staphylococcus aureus [1] = assay: Antibacterial activity against Staphylococcus aureus ATCC 25923 infected in Kunming mouse assessed as decrease in viable bacterial in eye blood at 5 mg/kg, ip measured after 1 hr; assay type: functional, organism-based
Staphylococcus aureus [2] = assay: Antibacterial activity against Staphylococcus aureus ATCC 25923 assessed as fold change in MIC value measured after 14 passages by Multi passage resistance assay; assay type: functional, organism-based
Bacillus subtilis [3] = assay: Antibacterial activity against penicillin-susceptible Bacillus subtilis ATCC 9372 assessed as inhibition of bacterial growth measured after 20 hrs by two-fold microdilution assay; assay type: functional
Bacillus pumilus [4] = assay: Antibacterial activity against penicillin-susceptible Bacillus pumilus CMCC63202 assessed as inhibition of bacterial growth measured after 20 hrs by two-fold microdilution assay; assay type: functional
Staphylococcus aureus [5] = assay: Antibacterial activity against erythromycin-susceptible Staphylococcus aureus ATCC 25923 assessed as inhibition of bacterial growth measured after 20 hrs by two-fold microdilution assay; assay type: functional
Streptococcus pyogenes [6] = assay: Antibacterial activity against erythromycin-susceptible Streptococcus pyogenes assessed as inhibition of bacterial growth measured after 20 hrs by two-fold microdilution assay; assay type: functional
Escherichia coli = assay: Antibacterial activity against penicillin-susceptible Escherichia coli ATCC 25922 assessed as inhibition of bacterial growth measured after 20 hrs by two-fold microdilution assay; assay type: functional
Pseudomonas aeruginosa [7] = assay: Antibacterial activity against penicillin-susceptible Pseudomonas aeruginosa ATCC 27853 assessed as inhibition of bacterial growth measured after 20 hrs by two-fold microdilution assay; assay type: functional
Staphylococcus aureus [8] = assay: Antibacterial activity against methicillin-resistant Staphylococcus aureus ATCC43300 assessed as inhibition of bacterial growth measured after 20 hrs by two-fold microdilution assay; assay type: functional
Staphylococcus aureus [9] = assay: Antibacterial activity against penicillin-resistant Staphylococcus aureus ATCC 31007 assessed as inhibition of bacterial growth measured after 20 hrs by two-fold microdilution assay; assay type: functional
Staphylococcus aureus [10] = assay: Antibacterial activity against clinical isolate Staphylococcus aureus C1 assessed as inhibition of bacterial growth measured after 20 hrs by two-fold microdilution assay; assay type: functional
Streptococcus pyogenes [11] = assay: Antibacterial activity against erythromycin-resistant Streptococcus pyogenes assessed as inhibition of bacterial growth measured after 20 hrs by two-fold microdilution assay; assay type: functional
[12] = test system: Staphylococcus epidermidis; assay: Antibacterial activity against penicillin-resistant Staphylococcus epidermidis assessed as inhibition of bacterial growth measured after 20 hrs by two-fold microdilution assay; assay type: functional
Enterococcus faecalis [13] = assay: Antibacterial activity against Vancomycin-susceptible Enterococcus faecalis ATCC 29212 assessed as inhibition of bacterial growth measured after 20 hrs by two-fold microdilution assay; assay type: functional
Enterococcus faecium [14] = assay: Antibacterial activity against Vancomycin-susceptible Enterococcus faecium ATCC 19434 assessed as inhibition of bacterial growth measured after 20 hrs by two-fold microdilution assay; assay type: functional
Enterococcus faecium [15] = assay: Antibacterial activity against Vancomycin-resistant Enterococcus faecium ATCC 51559 assessed as inhibition of bacterial growth measured after 20 hrs by two-fold microdilution assay; assay type: functional
Enterococcus faecalis [16] = assay: Antibacterial activity against Vancomycin-resistant Enterococcus faecalis ATCC 51299 assessed as inhibition of bacterial growth measured after 20 hrs by two-fold microdilution assay; assay type: functional
Bacillus subtilis [17] = assay: Bactericidal activity against penicillin-susceptible Bacillus subtilis ATCC 9372 assessed as inhibition of bacterial growth measured after 20 hrs by two-fold microdilution assay; assay type: functional
Bacillus pumilus [18] = assay: Bactericidal activity against penicillin-susceptible Bacillus pumilus CMCC63202 assessed as inhibition of bacterial growth measured after 20 hrs by two-fold microdilution assay; assay type: functional
Staphylococcus aureus [19] = assay: Bactericidal activity against erythromycin-susceptible Staphylococcus aureus ATCC 25923 assessed as inhibition of bacterial growth measured after 20 hrs by two-fold microdilution assay; assay type: functional
Staphylococcus aureus [20] = assay: Bactericidal activity against methicillin-resistant Staphylococcus aureus ATCC43300 assessed as inhibition of bacterial growth measured after 20 hrs by two-fold microdilution assay; assay type: functional
Staphylococcus aureus [21] = assay: Bactericidal activity against penicillin-resistant Staphylococcus aureus ATCC 31007 assessed as inhibition of bacterial growth measured after 20 hrs by two-fold microdilution assay; assay type: functional
Bacillus subtilis [22] = assay: Ratio of MBC to MIC against penicillin-susceptible Bacillus subtilis ATCC 9372; assay type: functional
Staphylococcus aureus [23] = assay: Ratio of MBC to MIC against erythromycin-susceptible Staphylococcus aureus ATCC 25923; assay type: functional
Staphylococcus aureus [24] = assay: Ratio of MBC to MIC against penicillin-resistant Staphylococcus aureus ATCC 31007; assay type: functional
Staphylococcus aureus [25] = assay: Antibacterial activity against Staphylococcus aureus ATCC 25923 assessed as reduction of colony forming units at 4 to 64 ug/ml measured up to 24 hrs by Time kill assay; assay type: functional, organism-based; details: dose 4-64 µg/ml, time hrs <=24
Pseudomonas aeruginosa [26] = assay: Anti-biofilm activity against Pseudomonas aeruginosa ATCC 27853 assessed as inhibition of biofilm formation at 4 to 64 ug/ml measured after 20 hrs by crystal violet staining based biofilm formation inhibition assay; assay type: functional, organism-based; details: dose 4-64 µg/ml
[27] = Hemolytic activity against mouse RBC at 1 to 16 ug/ml measured after 1 hr by hemolysis assay relative to Triton X-100; assay type: ADME, cell-based, Erythrocyte; details: mouse red blood cells (erythrocytes), at 1 to 16 µg/mL, dose 1-16 µg/ml, read-out: Activity
Staphylococcus aureus [28] = assay: Antibacterial activity against Staphylococcus aureus ATCC 25923 infected in Kunming mouse assessed as decrease in viable bacterial in eye blood at 25 mg/kg, ip measured after 1 hr; assay type: functional, organism-based
Bacillus pumilus [29] = assay: Inhibition of Bacillus pumilus CMCC63202 FtsZ assessed as change in morphology by measuring increase of cell length at 16 ug/ml measured after 20 hrs by optical microscopy; details: dose 16.0 µg/ml
[30] = biological target: T1, Cell division protein FtsZ (Bacillus subtilis (strain 168)) (UniProt P17865); assay: Inhibition of Bacillus subtilis FtsZ assessed as promotion of FtsZ polymerization measured after […] by fluorescence spectrometer based light scattering assay; details: dose 2.5-10 µg/ml
T1 sequence (whole entry): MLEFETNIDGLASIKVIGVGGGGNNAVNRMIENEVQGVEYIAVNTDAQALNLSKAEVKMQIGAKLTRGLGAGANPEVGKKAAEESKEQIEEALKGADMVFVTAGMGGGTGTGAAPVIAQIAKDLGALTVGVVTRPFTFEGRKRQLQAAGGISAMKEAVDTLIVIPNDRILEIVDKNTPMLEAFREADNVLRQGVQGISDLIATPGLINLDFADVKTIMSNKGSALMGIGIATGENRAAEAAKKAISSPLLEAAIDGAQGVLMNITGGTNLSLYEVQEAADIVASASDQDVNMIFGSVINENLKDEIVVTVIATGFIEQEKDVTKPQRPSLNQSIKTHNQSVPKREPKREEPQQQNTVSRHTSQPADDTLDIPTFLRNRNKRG

Bacillus pumilus [31] = assay: Inhibition of Bacillus pumilus CMCC63202 FtsZ assessed as aggregation of FtsZ at 10 ug/ml pre-incubated for 30 mins followed by addition of GTP and measured after 30 mins measured after by Transmission electron microscopic method; details: dose 10.0 µg/ml
Staphylococcus aureus [32] = assay: Antibacterial activity against Staphylococcus aureus ATCC 25923 assessed as decrease of bacterial growth measured up to 24 hrs by Time kill assay; assay type: functional, organism-based; details: dose 4-32 µg/ml, time hrs <=24
Staphylococcus aureus [33] = assay: Antibacterial activity against Staphylococcus aureus ATCC 25923 assessed as fold increase in MIC value measured after 1 passage by Multi passage resistance assay; assay type: functional
Staphylococcus aureus [34] = assay: Antibacterial activity against Staphylococcus aureus ATCC 25923 assessed as fold increase in MIC value measured after 15 passages by Multi passage resistance assay; assay type: functional
Staphylococcus aureus [35] = assay: Ratio of MBC to MIC against methicilline-resistant Staphylococcus aureus ATCC43300; assay type: functional
Staphylococcus aureus [36] = assay: Antibacterial activity against Staphylococcus aureus ATCC 25923 assessed as reduction of colony forming units at 32 ug/ml measured up to 24 hrs by Time kill assay; assay type: functional; set-up: scale not given: the % may be the effect or the level left; details: dose 32 µg/ml; time hrs <=24
Staphylococcus aureus [37] = assay: Antibacterial activity against Staphylococcus aureus ATCC 25923 assessed as fold increase in MIC value measured after 10 passages by Multi passage resistance assay; assay type: functional, organism-based

Row | SMILES | Activity (Staphylococcus aureus [2]) | MIC (Bacillus subtilis [3]) | MIC (Bacillus pumilus [4]) | MIC (Staphylococcus aureus [5]) | MIC (Streptococcus pyogenes [6]) | MIC (Escherichia coli) | MIC (Pseudomonas aeruginosa [7]) | MIC (Staphylococcus aureus [8]) | MIC (Staphylococcus aureus [9]) | MIC (Staphylococcus aureus [10]) | MIC (Streptococcus pyogenes [11]) | MIC [12] | MIC (Enterococcus faecalis [13]) | MIC (Enterococcus faecium [14]) | MIC (Enterococcus faecium [15]) | MIC (Enterococcus faecalis [16]) | MBC (Bacillus subtilis [17]) | MBC (Bacillus pumilus [18]) | MBC (Staphylococcus aureus [19]) | fold change (FC) (Staphylococcus aureus [33]) | further results
1 | Cc1cccc2c[n+](C)c3ccc(-c4ccc5ccn(Cc6ccccc6)c5c4)cc3c12.[Cl-] | Active | 4 µg/mL | 4 µg/mL | 1 µg/mL | 8 µg/mL | > 64 µg/mL | > 64 µg/mL | 2 µg/mL | 4 µg/mL | 2 µg/mL | 8 µg/mL | 8 µg/mL | 8 µg/mL | 8 µg/mL | 8 µg/mL | 16 µg/mL | 16 µg/mL | > 64 µg/mL | 32 µg/mL | 2 | Activity (Staphylococcus aureus [1]): Active; MBC (Staphylococcus aureus [20]): 64 µg/mL; MBC (Staphylococcus aureus [21]): 64 µg/mL; Ratio (Bacillus subtilis [22]): 4; Ratio (Staphylococcus aureus [23]): 32; Ratio (Staphylococcus aureus [24]): 16; Activity (Staphylococcus aureus [25]): Active; Activity (Pseudomonas aeruginosa [26]): inactive; hemolysis at 1 h [27]: < 8%; Activity (Staphylococcus aureus [28]): Active; inhibition (Bacillus pumilus [29]): Active; inhibition [30]: Active; inhibition (Bacillus pumilus [31]): Active; Activity (Staphylococcus aureus [32]): Dose-Dependent Effect
2 | CO[C@H]1/C=C/O[C@@]2(C)Oc3c(C)c(O)c4c(O)c(c(/C=N/N5CCN(C)CC5)c(O)c4c3C2=O)NC(=O)/C(C)=C\C=C\[C@H](C)[C@H](O)[C@@H](C)[C@@H](O)[C@@H](C)[C@H](OC(C)=O)[C@@H]1C [RIFAMPIN] | – | – | – | – | – | – | – | – | – | – | – | – | – | – | – | – | – | – | – | 8 | fold change (FC) (Staphylococcus aureus [34]): >16000
3 | CCCCn1ccc2ccc(-c3ccc4c(c3)c3c(C)cccc3c[n+]4C)cc21.[Cl-] | Active | 4 µg/mL | 8 µg/mL | 1 µg/mL | 16 µg/mL | > 64 µg/mL | > 64 µg/mL | 8 µg/mL | 8 µg/mL | 4 µg/mL | 16 µg/mL | 16 µg/mL | 8 µg/mL | 8 µg/mL | 8 µg/mL | 16 µg/mL | 8 µg/mL | > 64 µg/mL | 16 µg/mL | 4 | MBC (Staphylococcus aureus [20]): 64 µg/mL; MBC (Staphylococcus aureus [21]): > 64 µg/mL; Ratio (Bacillus subtilis [22]): 2; Ratio (Staphylococcus aureus [23]): 16; Ratio (Staphylococcus aureus [35]): 8; Activity (Staphylococcus aureus [36]): >99.9%; Activity (Pseudomonas aeruginosa [26]): inactive; hemolysis at 1 h [27]: < 8%; Activity (Staphylococcus aureus [32]): Dose-Dependent Effect; Activity (Staphylococcus aureus [37]): Active
